Results reported in the supplement of paper PMC11061612.

What was measured:
Carboplatin = compound: C1CC(C1)(C(=O)[O-])C(=O)[O-].N.N.[Pt+2] [Carboplatin]; conditions: max 10 µM
In short: (§1)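 Cancer cell lines were seeded in 1536-well plates in 7.5 μl DMEM/F12 or RPMI with 10% FBS, held 24 hours at 37°C and 5% CO2, then dosed for 72 hours (final DMSO typically 0.2%). Viability was read by CellTiter-Glo 2.0 luminescence and scaled between blank-well and DMSO-well means. The single-agent IC50 comes from dose responses fitted to a two-parameter logistic curve with a non-linear mixed effects model.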

AZD5363 = compound: C1CN(CCC1(C(=O)N[C@@H](CCO)C2=CC=C(C=C2)Cl)N)C3=NC=NC4=C3C=CN4 [AZD5363]; conditions: max 10 µM
In short: as §1

AZD1775 = compound: C=CCn1c(=O)c2cnc(Nc3ccc(N4CCN(C)CC4)cc3)nc2n1-c1cccc(C(C)(C)O)n1 [AZD1775]; conditions: max 3 µM
In short: as §1

Trametinib = compound: CC(=O)Nc1cccc(-n2c(=O)n(C3CC3)c(=O)c3c(Nc4ccc(I)cc4F)n(C)c(=O)c(C)c32)c1 [Trametinib]; conditions: max 1 µM
In short: as §1

Paclitaxel = compound: CC(=O)O[C@H]1C(=O)[C@@]2(C)[C@H]([C@H](OC(=O)c3ccccc3)[C@]3(O)C[C@H](OC(=O)[C@H](O)[C@@H](NC(=O)c4ccccc4)c4ccccc4)C(C)=C1C3(C)C)[C@]1(OC(C)=O)CO[C@@H]1C[C@@H]2O [Paclitaxel]; conditions: max 3 µM
In short: as §1

Palbociclib = compound: CC(=O)c1c(C)c2cnc(Nc3ccc(N4CCNCC4)cn3)nc2n(C2CCCC2)c1=O [Palbociclib]; conditions: max 10 µM
In short: as §1

AZD1390 = compound: CC(C)n1c(=O)n(C)c2cnc3cc(F)c(-c4ccc(OCCCN5CCCCC5)nc4)cc3c21 [AZD1390]; conditions: max 0.3 µM
In short: as §1

Venetoclax = compound: CC1(C)CCC(CN2CCN(c3ccc(C(=O)NS(=O)(=O)c4ccc(NCC5CCOCC5)c([N+](=O)[O-])c4)c(Oc4cnc5[nH]ccc5c4)c3)CC2)=C(c2ccc(Cl)cc2)C1 [Venetoclax]; conditions: max 1 µM
In short: as §1

Dasatinib = compound: CC1=C(C(=CC=C1)Cl)NC(=O)C2=CN=C(S2)NC3=CC(=NC(=N3)C)N4CCN(CC4)CCO [Dasatinib]; conditions: max 2 µM
In short: as §1

SG3199 = compound: CC1=CN2[C@@H](C1)C=NC3=CC(=C(C=C3C2=O)OC)OCCCCCOC4=C(C=C5C(=C4)N=C[C@@H]6CC(=CN6C5=O)C)OC [SG3199]; conditions: max 0.001 µM
In short: as §1

AZD2811 = compound: CCN(CCO)CCCOc1ccc2c(Nc3cc(CC(=O)Nc4cccc(F)c4)[nH]n3)ncnc2c1 [AZD2811]; conditions: max 1 µM
In short: as §1

SN-38 = compound: CCc1c2c(nc3ccc(O)cc13)-c1cc3c(c(=O)n1C2)COC(=O)[C@]3(O)CC [SN-38]; conditions: max 0.3 µM
In short: as §1

AZD0156 = compound: CN(C)CCCOc1ccc(-c2ccc3ncc4c(c3c2)n(C2CCOCC2)c(=O)n4C)cn1 [AZD0156]; conditions: max 3 µM
In short: as §1

AZD4320 = compound: CN(CC[C@H](CSC1=CC=CC=C1)NC2=C(C=C(C=C2)S(=O)(=O)NC(=O)C3=CC=C(C=C3)N4CCC(CC4)[C@H](C5=CC=CC=C5C6=CC=C(C=C6)Cl)O)S(=O)(=O)C(F)(F)F)CCO [AZD4320]; conditions: max 1 µM
In short: as §1

Alisertib = compound: COc1cc(Nc2ncc3c(n2)-c2ccc(Cl)cc2C(c2c(F)cccc2OC)=NC3)ccc1C(=O)O [Alisertib]; conditions: max 10 µM
In short: as §1

Etoposide = compound: COc1cc([C@@H]2c3cc4c(cc3[C@@H](O[C@@H]3O[C@@H]5CO[C@@H](C)O[C@H]5[C@H](O)[C@H]3O)[C@H]3COC(=O)[C@H]23)OCO4)cc(OC)c1O [Etoposide]; conditions: max 10 µM
In short: as §1

Gefitinib = compound: COc1cc2ncnc(Nc3ccc(F)c(Cl)c3)c2cc1OCCCN1CCOCC1 [Gefitinib]; conditions: max 10 µM
In short: as §1

Prexasertib = compound: COc1cccc(OCCCN)c1-c1cc(Nc2cnc(C#N)cn2)n[nH]1 [Prexasertib]; conditions: max 1 µM
In short: as §1

Doxorubicin = compound: COc1cccc2c1C(=O)c1c(O)c3c(c(O)c1C2=O)C[C@@](O)(C(=O)CO)C[C@@H]3O[C@H]1C[C@H](N)[C@H](O)[C@H](C)O1 [Doxorubicin]; conditions: max 1 µM
In short: as §1

AZD5153 = compound: COc1nnc2ccc(N3CCC(c4ccc(OCCN5CCN(C)C(=O)[C@H]5C)cc4)CC3)nn12 [AZD5153]; conditions: max 1 µM
In short: as §1

Lapatinib = compound: CS(=O)(=O)CCNCc1ccc(-c2ccc3ncnc(Nc4ccc(OCc5cccc(F)c5)c(Cl)c4)c3c2)o1 [Lapatinib]; conditions: max 10 µM
In short: as §1

AZD8186 = compound: C[C@@H](Nc1cc(F)cc(F)c1)c1cc(C(=O)N(C)C)cc2c(=O)cc(N3CCOCC3)oc12 [AZD8186]; conditions: max 10 µM
In short: as §1

Crizotinib = compound: C[C@@H](Oc1cc(-c2cnn(C3CCNCC3)c2)cnc1N)c1c(Cl)ccc(F)c1Cl [Crizotinib]; conditions: max 10 µM
In short: as §1

Savolitinib = compound: C[C@@H](c1ccc2nccn2c1)n1nnc2ncc(-c3cnn(C)c3)nc21 [Savolitinib]; conditions: max 1 µM
In short: as §1

AZD6738 = compound: C[C@@H]1COCCN1C2=NC(=NC(=C2)C3(CC3)[S@](=N)(=O)C)C4=C5C=CNC5=NC=C4 [AZD6738]; conditions: max 10 µM
In short: as §1

AZD5991 = compound: Cc1c2c(nn1C)CSCc1cc(n(C)n1)CSc1cc(c3ccccc3c1)OCCCc1c(C(=O)O)n(C)c3c-2c(Cl)ccc13 [AZD5991]; conditions: max 1 µM
In short: as §1

AZD7648 = compound: Cc1cc2ncnn2cc1Nc1ncc2c(n1)n(C1CCOCC1)c(=O)n2C [AZD7648]; conditions: max 10 µM
In short: as §1

Taselisib = compound: Cc1nc(-c2cn3c(n2)-c2ccc(-c4cnn(C(C)(C)C(N)=O)c4)cc2OCC3)n(C(C)C)n1 [Taselisib]; conditions: max 10 µM
In short: as §1

Selumetinib = compound: Cn1cnc2c(F)c(Nc3ccc(Br)cc3Cl)c(C(=O)NOCCO)cc21 [Selumetinib]; conditions: max 10 µM
In short: as §1

SRA737 = compound: N#Cc1cnc(Nc2cc(NC[C@H]3CNCCO3)c(C(F)(F)F)cn2)cn1 [SRA737]; conditions: max 10 µM
In short: as §1

MK-2206 = compound: NC1(c2ccc(-c3nc4ccn5c(=O)[nH]nc5c4cc3-c3ccccc3)cc2)CCC1 [MK-2206]; conditions: max 10 µM
In short: as §1

Gemcitabine = compound: Nc1ccn([C@@H]2O[C@H](CO)[C@@H](O)C2(F)F)c(=O)n1 [Gemcitabine]; conditions: max 0.3 µM
In short: as §1

[1] = compound: O=C(Nc1ccc2[nH]nc(-c3ccncc3)c2c1)[C@@H]1CCN(CC(=O)N2CCN(c3ccc(-c4ncccn4)cc3)CC2)C1; conditions: max 5 µM
In short: as §1

Olaparib = compound: O=C(c1cc(Cc2n[nH]c(=O)c3ccccc23)ccc1F)N1CCN(C(=O)C2CC2)CC1 [Olaparib]; conditions: max 10 µM
In short: as §1

5-Fluorouracil = compound: O=c1[nH]cc(F)c(=O)[nH]1 [5-Fluorouracil]; conditions: max 20 µM
In short: as §1

BICR78 (Oral Cavity Carcinoma)
IC50, cell viability 72 h (Carboplatin): > 10000 nM | IC50, cell viability 72 h (AZD5363): > 10000 nM | IC50, cell viability 72 h (AZD1775): > 3000 nM | IC50, cell viability 72 h (Trametinib): > 1000 nM | IC50, cell viability 72 h (Paclitaxel): 49.3 nM | IC50, cell viability 72 h (Palbociclib): > 10000 nM | IC50, cell viability 72 h (AZD1390): > 300 nM | IC50, cell viability 72 h (Venetoclax): > 1000 nM | IC50, cell viability 72 h (Dasatinib): > 2000 nM | IC50, cell viability 72 h (SG3199): > 1 nM | IC50, cell viability 72 h (AZD2811): > 1000 nM | IC50, cell viability 72 h (SN-38): 28.4 nM | IC50, cell viability 72 h (AZD0156): > 3000 nM | IC50, cell viability 72 h (AZD4320): > 1000 nM | IC50, cell viability 72 h (Alisertib): > 10000 nM | IC50, cell viability 72 h (Etoposide): > 10000 nM | IC50, cell viability 72 h (Gefitinib): > 10000 nM | IC50, cell viability 72 h (Prexasertib): 238 nM | IC50, cell viability 72 h (Doxorubicin): > 1000 nM | IC50, cell viability 72 h (AZD5153): 966 nM | IC50, cell viability 72 h (Lapatinib): > 10000 nM | IC50, cell viability 72 h (AZD8186): > 10000 nM | IC50, cell viability 72 h (Crizotinib): > 10000 nM | IC50, cell viability 72 h (Savolitinib): > 1000 nM | IC50, cell viability 72 h (AZD6738): 7520 nM | IC50, cell viability 72 h (AZD5991): > 1000 nM | IC50, cell viability 72 h (AZD7648): > 10000 nM | IC50, cell viability 72 h (Taselisib): 5010 nM | IC50, cell viability 72 h (Selumetinib): > 10000 nM | IC50, cell viability 72 h (SRA737): > 10000 nM | IC50, cell viability 72 h (MK-2206): > 10000 nM | IC50, cell viability 72 h (Gemcitabine): > 300 nM | IC50, cell viability 72 h [1]: > 5000 nM | IC50, cell viability 72 h (Olaparib): > 10000 nM | IC50, cell viability 72 h (5-Fluorouracil): > 20000 nM

CAL-39 (Other Solid Carcinomas)
IC50, cell viability 72 h (Carboplatin): > 10000 nM | IC50, cell viability 72 h (AZD5363): > 10000 nM | IC50, cell viability 72 h (AZD1775): 651 nM | IC50, cell viability 72 h (Trametinib): 59 nM | IC50, cell viability 72 h (Paclitaxel): 6.79 nM | IC50, cell viability 72 h (Palbociclib): > 10000 nM | IC50, cell viability 72 h (AZD1390): > 300 nM | IC50, cell viability 72 h (Venetoclax): > 1000 nM | IC50, cell viability 72 h (Dasatinib): 73.9 nM | IC50, cell viability 72 h (SG3199): > 1 nM | IC50, cell viability 72 h (AZD2811): > 1000 nM | IC50, cell viability 72 h (SN-38): 22.2 nM | IC50, cell viability 72 h (AZD0156): > 3000 nM | IC50, cell viability 72 h (AZD4320): > 1000 nM | IC50, cell viability 72 h (Alisertib): 420 nM | IC50, cell viability 72 h (Etoposide): 9070 nM | IC50, cell viability 72 h (Gefitinib): 737 nM | IC50, cell viability 72 h (Prexasertib): > 1000 nM | IC50, cell viability 72 h (Doxorubicin): > 1000 nM | IC50, cell viability 72 h (AZD5153): 287 nM | IC50, cell viability 72 h (Lapatinib): 377 nM | IC50, cell viability 72 h (AZD8186): 4770 nM | IC50, cell viability 72 h (Crizotinib): 4690 nM | IC50, cell viability 72 h (Savolitinib): > 1000 nM | IC50, cell viability 72 h (AZD6738): > 10000 nM | IC50, cell viability 72 h (AZD5991): > 1000 nM | IC50, cell viability 72 h (AZD7648): > 10000 nM | IC50, cell viability 72 h (Taselisib): 142 nM | IC50, cell viability 72 h (Selumetinib): 1020 nM | IC50, cell viability 72 h (SRA737): > 10000 nM | IC50, cell viability 72 h (MK-2206): > 10000 nM | IC50, cell viability 72 h (Gemcitabine): 25.2 nM | IC50, cell viability 72 h [1]: 581 nM | IC50, cell viability 72 h (Olaparib): > 10000 nM | IC50, cell viability 72 h (5-Fluorouracil): > 20000 nM
